Experimental data as given in article PMC4635624, “In vitro and in vivo single-agent efficacy of checkpoint kinase inhibition in acute lymphoblastic leukemia” (Journal of Hematology & Oncology, 2015).
Values joined by “and” are separate entries in the source; they are usually repeats but may differ in a detail not shown here. Identical values can stand only once.

What was measured:
BV-173 cells = test: γ-H2A.X immunofluorescence analysis; type: cell-based, human
Protocol: The so-called hyper-γ-H2A.X-positive cells loose the typical foci signal of γ-H2A.X and emit a much higher and diffuse signal of γ-H2A.X positivity.
NALM-6 and BV-173 cells were seeded to poly-D lysine-coated slides, fixed with 4 % PFA (paraformaldehyde), and stained at 37 °C with a mouse anti-H2A.X-Phosphorylated Alexa 647 conjugated antibody (BioLegend). Then, they were treated with DAPI (4.6 diamidino-2-phenylindole; Sigma Aldrich), and the slides were mounted with Mowiol (Calbiochem). Images were acquired with wide field fluorescence microscope Olympus BX61 fully motorized driven by Metamorph software, and the analysis was performed using the freeware ImageJ software.

B- and T-ALL cell lines = test: Annexin V/PI staining of apoptotic cells; type: cell-based, human; details: 0.1, 0.5, 1 μM (0.05, 0.1, 0.2 μM for BV-173 and RPMI-8402), 24 and 48 h; proportional to dose and exposure time
Protocol: In order to assess whether cytotoxicity was correlated to increased susceptibility to apoptosis, B-/T-ALL cell lines were incubated with increasing concentrations of drug (0.1, 0.5, and 1 μM and 0.05, 0.1, and 0.2 μM only for BV-173 and RPMI-8402, respectively) for 24 and 48 h. […] The induction of apoptosis by PF-00477736 was also assessed by the detection of poly (ADP-ribose) polymerase (PARP) cleavage by Western blot analysis.
According to the WST-1 results, three different increasing concentrations of PF-00477736 were used to treat leukemia cells lines in order to detect and discriminate apoptotic, necrotic and dead cells. Cell lines were seeded in 12-well plates at 500,000 cell/1 ml with increasing concentrations of drug (0.1, 0.5 and 1 μM and 0.05, 0.1 and 0.2 μM only for BV-173 and RPMI-8402) for 24 and 48 h and incubated at 37 °C. Following the treatment, cells were harvested and stained with Annexin V/PI according to the manufacturer’s instruction (Roche). The percentage of Annexin V-PI-positive cells was determined within 1 × 10^4 cells of the population by flow cytometry (FACSCanto II, BD Biosciences Pharmingen, San Jose, CA, USA). The mean percentage of Annexin V-PI-positive cells and standard error measurement was calculated from at least two separate experiments.

[1] = system: B/T-ALL cell lines (BV-173, SUP-B15, REH, NALM-6, NALM-19, MOLT-4, RPMI-8402, CCRF-CEM); test: Gene expression profiling (Affymetrix GeneChip Human Gene 1.0 ST); type: cell-based
Protocol: In order to identify gene expression changes specifically correlated with Chk1 inhibition and to better elucidate the mechanism of action of Chk1 inhibitor, gene expression profiling (GEP) analysis was performed by microarray on treated B/T-ALL cell lines (BV-173, SUP-B15, REH, NALM-6, NALM-19, MOLT-4, RPMI-8402, and CCRF-CEM) and on their untreated counterparts (DMSO 0.1 %) after 24 h of drug exposure. […] To identify peculiar critical pathways affected by Chk1 inhibition, the differentially expressed genes were analyzed in terms of biological function using the MetaCore pathway mapping software (GeneGo Inc.) which categorizes genes in pathway maps, Gene Ontology (GO) cellular processes, and cellular and molecular process networks. Consistent with a Chk1’s mechanism of action, the three top scored maps (map with the lowest p value) were “cell cycle: estrogen receptor 1 (ESR1) regulation of G1/S transition” including c-Jun/c-Fos, cyclin A, CARM1, Skp2/TrCP/FBXW, SKP2, c-Fos, CDK4, NCOA3, c-Jun, and CDK2 genes (Additional file 1: Figure S5); “apoptosis and survival: granzyme A signaling” including PHAP1, Ku70/80, Ku80, Ku70, histone H3, NDPK A, SET, histone H2B, and histone H1 genes (Additional file 1: Figure S6); and “DNA damage: ATM/ATR regulation of G1/S checkpoint” including PCNA, growth arrest and DNA damage 45 alpha (GADD45a), Chk2, cyclin A, NF-kB, cyclin-dependent kinase 4 (CDK4), FANCD2, Claspin, and CDK2 genes (Additional file 1: Figure S7). GO cellular processes highlighted 617 genes involved in cellular metabolic process (Additional file 3). Finally, the three top scored process networks impaired by the treatment with Chk1 inhibitor were as follows: the DNA damage checkpoint, the S phase of cell cycle, and the apoptosis, confirming the specificity of treatment on its target pathways (Additional file 4). […] Due to its implication in the regulation of the cell cycle and apoptosis, Western blot analysis against c-Jun was performed to better comprehend its biological role in response to PF-00477736. c-Jun is a component of the transcription factor activating protein-1 (AP-1) which is involved in cell cycle progression through the G1 phase by the regulation of the cyclin D1 [28]. […] The data found in the gene expression profile analysis were validated using qPCR.
Gene expression profiling on treated and untreated cells (DMSO 0.1 %) after 24 h of exposure to PF-0077736 was performed using Affymetrix GeneChip Human Gene 1.0 ST platform (Affymetrix Inc. Santa Clara, CA, USA) and following manufacturers’ instructions. Raw data were normalized by using the RMA algorithm and filtered. Genes differentially expressed were selected by analysis of variance (ANOVA) (p value threshold =0.05) using the Partek Genomics Suite software (Partek Incorporated Saint Louis, MO, USA; http://www.partek.com).

[2] = system: Chk1 pathway in normal bone marrow mononuclear cells; test: Western blot analysis in normal cells; type: cell-based, human; details: in contrast to leukemia cells

SMILES: Cn1cc(-c2[nH]c3cc(NC(=O)[C@H](N)C4CCCCC4)cc4c3c2C=NNC4=O)cn1 [PF-00477736]
- fold change of mean value intensity of γ-H2A.X, treated vs untreated (BV-173 cells; BV-173 γ-H2A.X positive cells): five-fold
- hyper-γ-H2A.X-positive cells among γ-H2A.X-positive cells (BV-173 cells; treated cells, 1.8 % in the untreated controls): ~6.5%
- apoptosis (Annexin V/PI-positive cells) (B- and T-ALL cell lines): significant increase of apoptosis
- Fold-Change (PF-00477736 vs. DMSO), SESN2 ([1]; transcript ID 7899436, 24 h, up-regulated): 2.221
- Fold-Change (PF-00477736 vs. DMSO), RNU11 ([1]; transcript ID 7899502, 24 h, up-regulated): 2.283
- Fold-Change (PF-00477736 vs. DMSO), GADD45A ([1]; transcript ID 7902227, 24 h, up-regulated): 2.163
- Fold-Change (PF-00477736 vs. DMSO), HIST2H4A ([1]; transcript ID 7905067, 24 h, up-regulated): 3.531
- Fold-Change (PF-00477736 vs. DMSO), BTG2 ([1]; transcript ID 7908917, 24 h, up-regulated): 2.0536
- Fold-Change (PF-00477736 vs. DMSO), ATF3 ([1]; transcript ID 7909610, 24 h, up-regulated): 2.764
- Fold-Change (PF-00477736 vs. DMSO), JUN ([1]; transcript ID 7916609, 24 h, up-regulated): 5.3469
- Fold-Change (PF-00477736 vs. DMSO), HIST2H2BF ([1]; transcript ID 7919584, 24 h, up-regulated): 2.188
- Fold-Change (PF-00477736 vs. DMSO), HIST2H2BF ([1]; transcript ID 7919606, 24 h, up-regulated): 2.022
- Fold-Change (PF-00477736 vs. DMSO), HIST2H4A ([1]; transcript ID 7919627, 24 h, up-regulated): 3.531
- Fold-Change (PF-00477736 vs. DMSO), RGS16 ([1]; transcript ID 7922717, 24 h, up-regulated): 2.4
- Fold-Change (PF-00477736 vs. DMSO), NFKB2 ([1]; transcript ID 7930074, 24 h, up-regulated): 2.262
- Fold-Change (PF-00477736 vs. DMSO), KLF6 ([1]; transcript ID 7931810, 24 h, up-regulated): 2.17 and 2.174
- Fold-Change (PF-00477736 vs. DMSO), BNIP3 ([1]; transcript ID 7937079, 24 h, down-regulated): -2.2734
- Fold-Change (PF-00477736 vs. DMSO), BEST1 ([1]; transcript ID 7940582, 24 h, up-regulated): 2.3629
- Fold-Change (PF-00477736 vs. DMSO), TCP11L2 ([1]; transcript ID 7958262, 24 h, up-regulated): 2.209
- Fold-Change (PF-00477736 vs. DMSO), CD69 ([1]; transcript ID 7961075, 24 h, up-regulated): 3.17
- Fold-Change (PF-00477736 vs. DMSO), RND1 ([1]; transcript ID 7962884, 24 h, up-regulated): 2.096
- Fold-Change (PF-00477736 vs. DMSO), DDIT3 ([1]; transcript ID 7964460, 24 h, up-regulated): 3.32 and 3.325
- Fold-Change (PF-00477736 vs. DMSO), FOS ([1]; transcript ID 7975779, 24 h, up-regulated): 2.40 and 2.404
- Fold-Change (PF-00477736 vs. DMSO), CHAC1 ([1]; transcript ID 7982868, 24 h, up-regulated): 2.1
- Fold-Change (PF-00477736 vs. DMSO), MAP1LC3B ([1]; transcript ID 7997740, 24 h, up-regulated): 2.05
- Fold-Change (PF-00477736 vs. DMSO), ALDOC ([1]; transcript ID 8013660, 24 h, down-regulated): -2.184
- Fold-Change (PF-00477736 vs. DMSO), ROCK1P1 ([1]; transcript ID 8019804, 24 h, up-regulated): 2.468
- Fold-Change (PF-00477736 vs. DMSO), PPP1R15A ([1]; transcript ID 8030128, 24 h, up-regulated): 2.884
- Fold-Change (PF-00477736 vs. DMSO), TRIB3 ([1]; transcript ID 8060344, 24 h, up-regulated): 2.719
- Fold-Change (PF-00477736 vs. DMSO), CEBPB ([1]; transcript ID 8063386, 24 h, up-regulated): 2.112
- Fold-Change (PF-00477736 vs. DMSO), NFKBIZ ([1]; transcript ID 8081386, 24 h, up-regulated): 2.098
- Fold-Change (PF-00477736 vs. DMSO), IL8 ([1]; transcript ID 8095680, 24 h, up-regulated): 2.299
- Fold-Change (PF-00477736 vs. DMSO), EGR1 ([1]; transcript ID 8108370, 24 h, up-regulated): 2.571
- Fold-Change (PF-00477736 vs. DMSO), ARRDC3 ([1]; transcript ID 8113073, 24 h, up-regulated): 2.177
- Fold-Change (PF-00477736 vs. DMSO), HIST1H2BJ ([1]; transcript ID 8124484, 24 h, up-regulated): 2.658
- Fold-Change (PF-00477736 vs. DMSO), HIST1H2AJ ([1]; transcript ID 8124518, 24 h, up-regulated): 5.146
- Fold-Change (PF-00477736 vs. DMSO), HIST1H2AM ([1]; transcript ID 8124540, 24 h, up-regulated): 2.131
- Fold-Change (PF-00477736 vs. DMSO), IER3 ([1]; transcript ID 8124848, 24 h, up-regulated): 2.508
- Fold-Change (PF-00477736 vs. DMSO), IER3 ([1]; transcript ID 8178435, 24 h, up-regulated): 2.417
- Fold-Change (PF-00477736 vs. DMSO), IER3 ([1]; transcript ID 8179704, 24 h, up-regulated): 2.508
- upregulated genes ([1]; treated vs DMSO 0.1 %, 24 h, 44 % of 941): 413 genes
- down-modulated genes ([1]; treated vs DMSO 0.1 %, 24 h, 56 % of 941): 528 genes
- differentially expressed genes (p < 0.05) ([1]; treated vs DMSO 0.1 %, 24 h of drug exposure): 941 genes
- phosphorylation of Chk1 (Ser345), Cdc25c (Ser216), Cdc2 (Tyr 15) and phospho-H2A.X [2]: did not induce protein phosphorylation changes
